“Also recorded” adds a separate entry of the source.

In series [1] the test system is oxygen-induced retinopathy (OIR). The series can be described thus: Oxygen-induced retinopathy (OIR) mouse model, intravitreal injection. The settings on record: single intravitreal dose, estimated 1 μM, injected P12, read P17; listed as SH-11037 (6c). The series is classed as in vivo, C57BL/6 mice. Here is the method:
Particularly, neonatal C57BL/6 mice (n=3-4 pups per group) were exposed to 75% oxygen from postnatal day 7 (P7) until P12 and brought to room air to cause ischemia and extensive neovessel formation at P17. The hyperoxia obliterates the normal retinal vasculature, prompting aberrant overgrowth including intravitreal vascular tufts, once returned to normoxia. Further, mice were injected with PBS alone (vehicle) or PBS containing SH-11037 (6c) to give the estimated intravitreal concentrations of 1.0 μM using a 33G needle, under isoflurane anesthesia at the time of return to room air on P12. At P17, the mice were euthanized, eyes fixed, and retinal wholemounts were prepared.
Wholemounts were stained with AlexaFluor488-isolectin B4 and imaged on a Zeiss LSM700 confocal microscope. Neovascular area, as a percentage of total retinal area, was calculated using ImageJ with the SWIFT_NV plugin.

Series [2] relates to HRECs. The series is described as follows: Apoptosis of HRECs by cleaved caspase-3 staining. The series is classed as cell-based, human. On the procedure:
Further, cells (25,000 per coverslip) were seeded onto coverslips coated with Attachment Factor (Cell Systems, Kirkland, Wash., USA) and incubated at 37° C. and 5% CO2 in EGM-2 until ˜80% confluence was achieved. The cells were then incubated for 4 hours with the indicated concentrations of SH-11052 (2). Staurosporine (SP; 1 μM) was used as a positive control. After the incubation, the cells were fixed in 4% paraformaldehyde for 20 minutes at room temperature followed by three quick washes in Tris buffered saline pH 7.4 (TBS). The cells were permeabilized by incubating with 0.5% Triton X-100 for 10 minutes and then blocked in 10% block solution (DAKO, Glostrup, Denmark) in TBS plus 1% bovine serum albumin (BSA) for 1 hour. The cells were then incubated with cleaved caspase-3 (D175) antibody (1:200 dilution) overnight at 4° C. Dylight 555 conjugated goat anti-rabbit secondary antibody (1:400) was used to probe the cleaved caspase-3 antibody. The coverslips were mounted using Vectashield mounting medium containing DAPI (Vector Labs, Burlingame, Calif., USA) for nuclear staining. The cells were imaged using an LSM 700 confocal microscope (Zeiss, Thornwood, N.Y., USA).

Series [3] deals with VEGFR2. The series can be described thus: Phosphorylation of VEGFR2 in HRECs upon VEGF stimulation (immunoblot). As to conditions: 100 ng/ml VEGF, 20 minutes. The series is classed as cell-based, human. On the procedure:
HRECs were seeded at 10^5 cells/well in a 6-well plate and after 24 hours of incubation at 37° C., cells were serum starved in 0.1% serum-EBM-2 for 8 hours. Cells were then treated with the indicated concentrations of SH-11052 (2) for one hour before the addition of 100 ng/ml VEGF. After 20 minutes, cells were lysed in NP-40 Lysis buffer containing 25 mM HEPES pH 7.4, 1% NP-40, 150 mM NaCl, 10% glycerol, 1 mM sodium orthovanadate, 10 mM sodium fluoride, 1 mM sodium pyrophosphate, 1 mM PMSF, 2.5 mg/ml aprotinin, 1 mM pepstatin, and 1 mM leupeptin. Equal amounts of proteins (80 μg), as measured by a Bradford assay, were run on 10% SDS-PAGE, transferred to PVDF membrane, blocked with 5% BSA in TBS-0.05% Tween-20 and immunoblotted with the indicated primary antibodies (1:1000 in 1% BSA in TBS-0.05% Tween-20) overnight at 4° C. After three washes in TBS-0.05% Tween-20, HRP-conjugated secondary antibodies (1:5000 in 5% BSA in TBS-0.05% Tween-20) were applied for one hour at room temperature. After three washes, the protein bands were detected and densitized using ECL Prime western blot detection reagent (GE Life Sciences, Piscataway, N.J., USA) and an XRS gel documentation system running Quantity One software (Bio-Rad). Target protein band intensity was normalized to housekeeping gene α-tubulin. […]
In general terms: Immunoblotting shows a protein as a band on a membrane.

The subject of series [4] is CCL2 (MCP-1). The series is described as follows: qRT-PCR of NF-κB target gene CCL2 in TNF-α challenged cells. The series is classed as cell-based, human. As to conditions: 10 ng/ml TNF-α for 24 hours; listed as SH-11052 (2). On the procedure:
Similarly, the mRNA expression of the pro-inflammatory molecules IL8, PTGS2 (COX2) and CCL2 (MCP-1), inducible by NF-κB, were analyzed in the presence of SH-11052 (2). Cells (10^5 per well) were seeded in a 6-well plate and incubated for 24 hours at 37° C. and 5% CO2. The cells were then starved in 0.1% serum-EBM-2 for 12 hours followed by incubation for an hour in the presence of different concentrations of SH-11052 (2). The cells were then challenged for 24 hours with 10 ng/ml TNF-α. Following incubation, cells were lysed and RNA was isolated using Trizol reagent (Life Technologies). cDNA was prepared from 80 ng total RNA using random primers and M-MuLV Reverse Transcriptase (New England Biolabs, Ipswich, Mass., USA). RT-PCR reactions were set up using the TaqMan Fast Gene Expression Assay Kit according to the manufacturer's instructions. FAM-labeled TaqMan probes for PTGS2 (Hs00153133_m1), CCL2 (Hs00234140_m1), IL8 (Hs00174103_m1), and control, TBP (Hs99999910_m1), genes were used to monitor the expression levels of these genes. The qRT-PCR plate was read in a ViiATM 7 qPCR system (Life Technologies) and the data were analyzed using the ΔΔCt method. The expression levels of genes were normalized to TBP gene expression and calibrated to the DMSO-treated, unstimulated sample.

For `COc1ccc(CC2COc3cc(OC)c(OC)c(OC)c3C2=O)cc1OC(=O)[C@H](Cc1ccccc1)NC(=O)OC(C)(C)C` (stereo partly drawn) [Compound 6c, (2S)-2-methoxy-5-((5,6,7-trimethoxy-4-oxochroman-3-yl)methyl)phenyl 2-((tert-butoxycarbonyl)amino)-3-phenylpropanoate], the “neovascular area / neovascularization in vivo” value in series [1] was “blocked neovascularization in vivo; also recorded: significantly decreased neovascular area”. The “apoptosis of HRECs” value in series [2] (concentration not given, FIGS. 16A-16B, listed as SH-11037 (6c)) is recorded as “did not cause apoptosis; also recorded: did not promote apoptosis”.
Regarding `COc1ccc(CC2COc3cc(OC)c(O)c(O)c3C2=O)cc1O` (single isomer, unassigned) [Compound 2], the “phosphorylation of VEGFR2” value in series [3] is on record as “did not inhibit phosphorylation”. The “mRNA expression of CCL2 (MCP-1)” value in series [4] is “decreased the expression”. In addition, in series [2] (100 μM, 4 hours), the “apoptosis of HRECs (cleaved caspase-3 staining)” value is reported as “negligible apoptosis”.
